Among the test systems are EKVX NSCLC; KM12 colon; MALME-3M melanoma; NCI-H23 lung; OVCAR-4 ovarian; SF-539 CNS; SN12C renal; SNB-75 CNS; T-47D breast; K-562 leukemia.
Experiment in all cases: NCI anticancer screen, dose series, 48 h

In PubChem BioAssay (NCI) one finds TGI and GI50 data, which are given here for ten molecules.

SMILES strings stand for the structures.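 Exposure lasted 48 hours, with cells grown in 96-well plates and compounds tested at five concentrations. Here, GI50 denotes the concentration required for 50% inhibition of growth. TGI: total growth inhibition.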

For the molecule `COc1ccc(C2=CC(c3ccc4c(c3)OCO4)c3c(c4ccccc4oc3=O)O2)cc1OC` (stereo unspecified), the TGI with EKVX NSCLC is more than 100 µM; in the assay on KM12 colon, more than 100 µM; in the assay on MALME-3M melanoma it was more than 100 µM; with NCI-H23 lung, more than 100 µM; with OVCAR-4 ovarian, more than 100 µM; in the assay on SF-539 CNS, more than 22.5 µM. Also, the TGI in the assay on SN12C renal was more than 100 µM; in the assay on SNB-75 CNS, more than 21.4 µM; with T-47D breast, more than 100 µM.
Take `COc1cc(CSc2nc3ccc(C)cc3c(=O)n2-c2ccccc2)cc(OC)c1OC`: the GI50 is 0.534 µM in the assay on K-562 leukemia; 0.99 µM with KM12 colon; 3.73 µM with MALME-3M melanoma; 6.97 µM with NCI-H23 lung; 4.92 µM in the assay with OVCAR-4 ovarian; 2.08 µM with SF-539 CNS. For the same molecule, the values for the GI50 with SN12C renal, in the assay on SNB-75 CNS and in the assay with T-47D breast were 4.56 µM, 0.328 µM and 1.56 µM, respectively. The TGI is more than 100 µM in the assay with K-562 leukemia; more than 100 µM in the assay on KM12 colon; more than 100 µM with MALME-3M melanoma; more than 100 µM with NCI-H23 lung; more than 100 µM with OVCAR-4 ovarian; 9.52 µM in the assay on SF-539 CNS. For the same molecule, the TGI is more than 100 µM in the assay on SN12C renal, 2.98 µM with SNB-75 CNS and more than 100 µM with T-47D breast.
As for `COc1cc([N+](=O)[O-])c(OC)cc1-c1nc2sc(Cl)cn2c1/C(N)=N/C(=N)N`, the GI50 with EKVX NSCLC is 9.66 µM; in the assay on K-562 leukemia, 2.01 µM; in the assay on KM12 colon, 2.75 µM; in the assay on MALME-3M melanoma, 5.71 µM; in the assay on NCI-H23 lung, 3.43 µM; in the assay with OVCAR-4 ovarian, 5.67 µM. The figures for the GI50 with SF-539 CNS, in the assay with SN12C renal and in the assay on T-47D breast were 4.53 µM, 1.91 µM and 2.31 µM, respectively. The TGI in the assay on EKVX NSCLC was 40.9 µM; with K-562 leukemia, more than 100 µM; in the assay with KM12 colon it was 9.16 µM; in the assay with MALME-3M melanoma, 26.6 µM; in the assay with NCI-H23 lung it was 10.8 µM; with OVCAR-4 ovarian, 33.8 µM. Moreover, the TGI in the assay with SF-539 CNS amounted to 50.8 µM; with SN12C renal it was 4.29 µM; in the assay on T-47D breast, 5.63 µM.
As to `CC(C)(C)n1cc(-c2ccnc(NCCCNS(=O)(=O)c3ccc(C(F)(F)F)cc3)c2)c(-c2cccc(O)c2)n1`, the GI50 in the assay with EKVX NSCLC was 1.82 µM; in the assay with K-562 leukemia, 2.1 µM; in the assay on MALME-3M melanoma it was 1.72 µM; in the assay with NCI-H23 lung, 1.67 µM; in the assay with OVCAR-4 ovarian, 2.29 µM; in the assay on SF-539 CNS, 1.65 µM. Moreover, the GI50 is 1.61 µM in the assay on SN12C renal, 1.94 µM in the assay with SNB-75 CNS and 2.24 µM with T-47D breast. In addition, the TGI in the assay on EKVX NSCLC is 3.95 µM; in the assay on K-562 leukemia, more than 100 µM; in the assay with MALME-3M melanoma, 3.38 µM; in the assay with NCI-H23 lung, 3.18 µM; with OVCAR-4 ovarian, 5.25 µM; with SF-539 CNS it was 3.09 µM. The TGI in the assay on SN12C renal was 3.03 µM; in the assay with SNB-75 CNS, 6.04 µM; in the assay on T-47D breast, 6.61 µM.
Take `O=C(O)CNC(=O)c1ccc(-c2ccccc2)cc1`: the TGI with EKVX NSCLC, in the assay on K-562 leukemia, in the assay on KM12 colon, in the assay on MALME-3M melanoma, in the assay with NCI-H23 lung and in the assay with SF-539 CNS was more than 100 µM throughout. Moreover, the TGI in the assay with SN12C renal and in the assay with T-47D breast was more than 100 µM throughout.
Take `COc1ccc(-c2nc(-c3nc4ccc(OC)cc4[nH]3)c3ccccn23)cc1`: the GI50 in the assay with K-562 leukemia was 3.6 µM; in the assay on KM12 colon it was 3.88 µM; in the assay with MALME-3M melanoma it was 13.3 µM; with NCI-H23 lung it was 12.7 µM; with OVCAR-4 ovarian, 4.53 µM; in the assay with SF-539 CNS it was 9.71 µM. Moreover, the GI50 in the assay with SN12C renal is 3.91 µM; in the assay on SNB-75 CNS, 24 µM; with T-47D breast, 2.7 µM. Further, the TGI was more than 100 µM in the assay with K-562 leukemia; 15.8 µM in the assay with KM12 colon; 70.5 µM in the assay with MALME-3M melanoma; more than 100 µM with NCI-H23 lung; more than 100 µM in the assay on OVCAR-4 ovarian; more than 100 µM in the assay with SF-539 CNS. Also, the TGI with SN12C renal was more than 100 µM; in the assay with SNB-75 CNS it was more than 100 µM; with T-47D breast, 9.75 µM.
Turning to `CC(=O)OCC1OC(n2cnc(C(N)=S)c2N)C(OC(C)=O)C1OC(C)=O` (stereo unspecified), the TGI in the assay on KM12 colon, in the assay with MALME-3M melanoma, in the assay on NCI-H23 lung, in the assay with OVCAR-4 ovarian, with SF-539 CNS and in the assay with SN12C renal was more than 100 µM each time. Moreover, the TGI in the assay on SNB-75 CNS and in the assay on T-47D breast was more than 100 µM each time.
Take `COc1cc(C(=O)O[C@H](C(=O)NCCCCCNC(=O)[C@@H](OC(=O)c2cc(OC)cc3c(C)cccc23)[C@]2(C)CO2)[C@]2(C)CO2)c2cccc(C)c2c1`: the GI50 in the assay with EKVX NSCLC was 0.635 µM; in the assay with K-562 leukemia, 0.437 µM; in the assay with KM12 colon, 0.5 µM; with NCI-H23 lung it was 0.179 µM; with OVCAR-4 ovarian, 0.877 µM; in the assay on SF-539 CNS, 0.119 µM. Also, the GI50 in the assay on SN12C renal is 0.364 µM; in the assay with SNB-75 CNS, 0.911 µM; in the assay on T-47D breast it was 1 µM. Also, the TGI with EKVX NSCLC is 3.72 µM; in the assay on K-562 leukemia, more than 36.3 µM; in the assay on KM12 colon, 1.41 µM; with NCI-H23 lung it was 0.665 µM; in the assay on OVCAR-4 ovarian it was more than 100 µM; in the assay with SF-539 CNS, 0.587 µM. Further, the TGI with SN12C renal came out at 1.15 µM; in the assay on SNB-75 CNS it was 3.43 µM.
For the molecule `COC(=O)C1(C)CCC(c2ccc(C)cc2)=C(CC(=O)O)C1` (stereo unspecified), the TGI with EKVX NSCLC, in the assay with K-562 leukemia, with MALME-3M melanoma, in the assay with NCI-H23 lung, in the assay on OVCAR-4 ovarian and in the assay with SF-539 CNS was more than 100 µM throughout. Also, the TGI in the assay on SN12C renal, with SNB-75 CNS and in the assay on T-47D breast was more than 100 µM throughout.
For `C[C@H]1[C@H](C)CC[C@]2(CO)CC[C@]3(C)C(=CC[C@@H]4[C@@]5(C)CCCNC(C)(C)[C@@H]5CC[C@]43C)[C@H]12`, the GI50 in the assay with EKVX NSCLC is 1.66 µM; with K-562 leukemia, 0.471 µM; in the assay with KM12 colon it was 1.84 µM; with MALME-3M melanoma it was 1.68 µM; in the assay with NCI-H23 lung, 1.65 µM; in the assay with SF-539 CNS, 1.69 µM. In addition, the GI50 in the assay on SN12C renal was 1.64 µM; with SNB-75 CNS it was 1.49 µM; with T-47D breast it was 1.68 µM. Moreover, the TGI in the assay on EKVX NSCLC is 3.29 µM; with K-562 leukemia it was 2.02 µM; in the assay on KM12 colon it was 3.51 µM; in the assay with MALME-3M melanoma it was 3.44 µM; with NCI-H23 lung, 3.26 µM; with SF-539 CNS, 3.16 µM. Besides, the TGI amounted to 3.11 µM in the assay on SN12C renal, 2.9 µM in the assay with SNB-75 CNS and 4.03 µM in the assay on T-47D breast.
